Measurements reported in patent US11400081B2, “Compounds” (The University of Sheffield, priority 2017, dated 2022).
No end group written: not given here.

Columns and labels:
[1] = test system: human pancreatic cancer cells; settings: local injection directly into tumours, pancreatic cancer model; cited from earlier work
[2] = target: T1, AM2 receptor (CALCRL+RAMP3) (Homo sapiens, UniProt O60896+Q16602); assay: AM2 receptor inhibition, LANCE TR-FRET cAMP agonist-antagonist competition assay; type: cell-based; settings: inhibition of AM induced cAMP activation; 1321N1 cells transfected with CALCRL+RAMP3; read-out: AM2 pIC50 (converted)
T1 construct: host or cells: 1321N1
T1 sequence (Q16602 23-461): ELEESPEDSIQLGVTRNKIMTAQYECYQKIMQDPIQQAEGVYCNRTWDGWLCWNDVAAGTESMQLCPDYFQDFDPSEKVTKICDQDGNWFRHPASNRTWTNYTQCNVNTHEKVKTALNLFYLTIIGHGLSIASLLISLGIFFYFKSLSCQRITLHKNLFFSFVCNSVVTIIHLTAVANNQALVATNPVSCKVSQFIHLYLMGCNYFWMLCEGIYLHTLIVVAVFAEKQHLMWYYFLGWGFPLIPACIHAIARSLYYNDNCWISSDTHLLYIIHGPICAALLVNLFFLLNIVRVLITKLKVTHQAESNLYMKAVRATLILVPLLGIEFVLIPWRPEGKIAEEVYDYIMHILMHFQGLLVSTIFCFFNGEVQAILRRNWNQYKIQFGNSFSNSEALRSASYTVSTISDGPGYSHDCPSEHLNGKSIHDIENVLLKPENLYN
T1 sequence (O60896 24-148): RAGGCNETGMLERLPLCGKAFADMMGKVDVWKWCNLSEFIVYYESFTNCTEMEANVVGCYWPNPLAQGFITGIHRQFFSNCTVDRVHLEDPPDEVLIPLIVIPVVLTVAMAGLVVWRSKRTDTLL

IC50 [2]	Compound	tumour size compared to controls [1]
	AM22-52: "the AM peptide antagonist (AM22-52)"; "peptide and antibody AM2 receptor inhibitors are known such as AM22-52" (TVQKLAHQIYQFTDKDKDNVAPRSKISPQGY; ends and bridges not checked; UniProt P35318 116-146, looked up, fragment)	reduced tumour size significantly
3.63 nM	CNCc1ccccc1CN(CC(=O)Nc1ccc2c(c1)CC1(C2)C(=O)Nc2ncccc21)C(=O)C1(C(F)(F)F)CC1 (stereo not drawn) [Example 75, N-[[2-(methylaminomethyl)phenyl]methyl]-N-[2-oxo-2-[(2-oxospiro[1H-pyrrolo[2,3-b]pyridine-3,2′-indane]-5′-yl)amino]ethyl]-1-(trifluoromethyl)cyclopropanecarboxamide 2,2,2-trifluoroacetate]	
22.4 nM	CNCc1ccccc1CN(CC(=O)Nc1ccc2c(c1)CC1(C2)C(=O)Nc2ncccc21)C(=O)C1CCN(C(C)=O)CC1 (stereo not drawn) [Example 79, 1-Acetyl-N-(2-((methylamino)methyl)benzyl)-N-(2-oxo-2-((2′-oxo-1,1′,2′,3-tetrahydrospiro[indene-2,3′-pyrrolo[2,3-b]pyridin]-5-yl)amino)ethyl)piperidine-4-carboxamide]	
50.1 nM	CNCc1ccccc1CN(CC(=O)Nc1cnc2c(c1)CC1(C2)C(=O)Nc2ncccc21)C(=O)C(C)(C)C (stereo not drawn) [Example 105, N-(2-((methylamino)methyl)benzyl)-N-(2-oxo-2-((2′-oxo-1′,2′,5,7-tetrahydrospiro[cyclopenta[b]pyridine-6,3′-pyrrolo[2,3-b]pyridin]-3-yl)amino)ethyl)pivalamide 2,2,2-trifluoroacetate]	
9.33 nM	CNCc1ccccc1CN(CC(=O)Nc1ccc2c(c1)CC1(C2)C(=O)Nc2ncccc21)C(=O)C(C)(C)OC (stereo not drawn) [Example 59, 2-Methoxy-2-methyl-N-(2-((methylamino)methyl)benzyl)-N-(2-oxo-2-((2′-oxo-1,1′,2′,3-tetrahydrospiro[indene-2,3′-pyrrolo[2,3-b]pyridin]-5-yl)amino)ethyl)propanamide]	
34.7 nM	CC(c1ccccc1CN(CC(=O)Nc1ccc2c(c1)CC1(C2)C(=O)Nc2ncccc21)C(=O)C(C)(C)C)N(C)C (stereo not drawn) [Example 24, N-(2-(1-(Dimethylamino)ethyl)benzyl)-N-(2-oxo-2-((2′-oxo-1,1′,2′,3-tetrahydrospiro[indene-2,3′-pyrrolo[2,3-b]pyridin]-5-yl)amino)ethyl)pivalamide]	
